{"source": "paper PMC9719519", "about": "“Non-classical ferroptosis inhibition by a small molecule targeting PHB2” (Nature Communications, 2022)", "assay_in_all_cases": "biochemical", "parameters_in_all_cases": "Eurofins recombinant human kinase profiling, remaining kinase activity as % of control, 10 uM ATP", "conditions_in_all_cases": "ATP 10 uM; read-out: %Ctrl@10 μM", "key": {"CDK18/cyclinY(h)": {"biological_target": "CDK18/cyclinY(h) (Homo sapiens, UniProt Q07002)", "sequence (Q07002 whole entry)": "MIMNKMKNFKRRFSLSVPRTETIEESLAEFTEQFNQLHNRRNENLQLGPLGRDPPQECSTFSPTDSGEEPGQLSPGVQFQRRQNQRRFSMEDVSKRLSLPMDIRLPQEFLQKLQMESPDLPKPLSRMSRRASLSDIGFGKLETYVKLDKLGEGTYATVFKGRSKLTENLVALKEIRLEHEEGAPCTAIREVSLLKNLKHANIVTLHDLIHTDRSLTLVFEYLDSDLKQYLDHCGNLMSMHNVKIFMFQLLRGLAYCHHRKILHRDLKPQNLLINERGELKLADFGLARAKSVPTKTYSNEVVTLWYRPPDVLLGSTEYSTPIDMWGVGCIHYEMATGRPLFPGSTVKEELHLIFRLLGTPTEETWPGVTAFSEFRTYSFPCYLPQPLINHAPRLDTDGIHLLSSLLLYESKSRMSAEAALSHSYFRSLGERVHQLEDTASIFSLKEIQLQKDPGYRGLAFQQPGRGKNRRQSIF", "sequence (Q8ND76 whole entry partner)": "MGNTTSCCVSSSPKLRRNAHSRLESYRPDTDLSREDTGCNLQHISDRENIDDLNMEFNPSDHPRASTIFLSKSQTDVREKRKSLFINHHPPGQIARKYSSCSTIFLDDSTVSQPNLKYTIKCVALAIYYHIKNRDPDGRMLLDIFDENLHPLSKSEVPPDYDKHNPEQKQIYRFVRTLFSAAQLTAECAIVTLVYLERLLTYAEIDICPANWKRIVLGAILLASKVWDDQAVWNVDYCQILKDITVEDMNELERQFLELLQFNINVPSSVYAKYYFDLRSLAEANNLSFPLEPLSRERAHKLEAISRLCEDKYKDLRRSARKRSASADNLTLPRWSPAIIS", "method_in_brief": "(§1)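 Recombinant human kinases, 401 in total, screened using an outsourced kinase profiling assay.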"}, "Fer(h)": {"biological_target": "Fer(h) (Homo sapiens, UniProt P16591)", "method_in_brief": "as §1"}, "PKCα(h)": {"biological_target": "T1, PKCα(h) (Homo sapiens, UniProt P17252)", "T1 construct": "gene PRKCA", "method_in_brief": "as §1"}, "LIMK1(h)": {"biological_target": "LIMK1(h) (Homo sapiens, UniProt P53667)", "method_in_brief": "as §1"}, "PrKX(h)": {"biological_target": "PrKX(h) (Homo sapiens, UniProt P51817)", "sequence (P51817 whole entry)": "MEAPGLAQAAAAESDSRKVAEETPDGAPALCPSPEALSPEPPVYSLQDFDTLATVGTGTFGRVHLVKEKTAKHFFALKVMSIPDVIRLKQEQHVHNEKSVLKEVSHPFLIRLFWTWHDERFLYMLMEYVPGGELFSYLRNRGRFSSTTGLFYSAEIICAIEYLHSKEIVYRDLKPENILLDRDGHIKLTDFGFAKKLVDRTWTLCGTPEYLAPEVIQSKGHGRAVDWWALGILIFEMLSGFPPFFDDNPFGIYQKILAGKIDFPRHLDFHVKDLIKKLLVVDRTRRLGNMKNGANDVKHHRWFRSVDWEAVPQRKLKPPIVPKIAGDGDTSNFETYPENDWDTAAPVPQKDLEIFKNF", "method_in_brief": "as §1"}, "TLK1(h)": {"biological_target": "TLK1(h) (Homo sapiens, UniProt Q9UKI8)", "method_in_brief": "as §1"}, "WNK2(h)": {"biological_target": "WNK2(h) (Homo sapiens, UniProt Q9Y3S1)", "sequence (Q9Y3S1 whole entry)": "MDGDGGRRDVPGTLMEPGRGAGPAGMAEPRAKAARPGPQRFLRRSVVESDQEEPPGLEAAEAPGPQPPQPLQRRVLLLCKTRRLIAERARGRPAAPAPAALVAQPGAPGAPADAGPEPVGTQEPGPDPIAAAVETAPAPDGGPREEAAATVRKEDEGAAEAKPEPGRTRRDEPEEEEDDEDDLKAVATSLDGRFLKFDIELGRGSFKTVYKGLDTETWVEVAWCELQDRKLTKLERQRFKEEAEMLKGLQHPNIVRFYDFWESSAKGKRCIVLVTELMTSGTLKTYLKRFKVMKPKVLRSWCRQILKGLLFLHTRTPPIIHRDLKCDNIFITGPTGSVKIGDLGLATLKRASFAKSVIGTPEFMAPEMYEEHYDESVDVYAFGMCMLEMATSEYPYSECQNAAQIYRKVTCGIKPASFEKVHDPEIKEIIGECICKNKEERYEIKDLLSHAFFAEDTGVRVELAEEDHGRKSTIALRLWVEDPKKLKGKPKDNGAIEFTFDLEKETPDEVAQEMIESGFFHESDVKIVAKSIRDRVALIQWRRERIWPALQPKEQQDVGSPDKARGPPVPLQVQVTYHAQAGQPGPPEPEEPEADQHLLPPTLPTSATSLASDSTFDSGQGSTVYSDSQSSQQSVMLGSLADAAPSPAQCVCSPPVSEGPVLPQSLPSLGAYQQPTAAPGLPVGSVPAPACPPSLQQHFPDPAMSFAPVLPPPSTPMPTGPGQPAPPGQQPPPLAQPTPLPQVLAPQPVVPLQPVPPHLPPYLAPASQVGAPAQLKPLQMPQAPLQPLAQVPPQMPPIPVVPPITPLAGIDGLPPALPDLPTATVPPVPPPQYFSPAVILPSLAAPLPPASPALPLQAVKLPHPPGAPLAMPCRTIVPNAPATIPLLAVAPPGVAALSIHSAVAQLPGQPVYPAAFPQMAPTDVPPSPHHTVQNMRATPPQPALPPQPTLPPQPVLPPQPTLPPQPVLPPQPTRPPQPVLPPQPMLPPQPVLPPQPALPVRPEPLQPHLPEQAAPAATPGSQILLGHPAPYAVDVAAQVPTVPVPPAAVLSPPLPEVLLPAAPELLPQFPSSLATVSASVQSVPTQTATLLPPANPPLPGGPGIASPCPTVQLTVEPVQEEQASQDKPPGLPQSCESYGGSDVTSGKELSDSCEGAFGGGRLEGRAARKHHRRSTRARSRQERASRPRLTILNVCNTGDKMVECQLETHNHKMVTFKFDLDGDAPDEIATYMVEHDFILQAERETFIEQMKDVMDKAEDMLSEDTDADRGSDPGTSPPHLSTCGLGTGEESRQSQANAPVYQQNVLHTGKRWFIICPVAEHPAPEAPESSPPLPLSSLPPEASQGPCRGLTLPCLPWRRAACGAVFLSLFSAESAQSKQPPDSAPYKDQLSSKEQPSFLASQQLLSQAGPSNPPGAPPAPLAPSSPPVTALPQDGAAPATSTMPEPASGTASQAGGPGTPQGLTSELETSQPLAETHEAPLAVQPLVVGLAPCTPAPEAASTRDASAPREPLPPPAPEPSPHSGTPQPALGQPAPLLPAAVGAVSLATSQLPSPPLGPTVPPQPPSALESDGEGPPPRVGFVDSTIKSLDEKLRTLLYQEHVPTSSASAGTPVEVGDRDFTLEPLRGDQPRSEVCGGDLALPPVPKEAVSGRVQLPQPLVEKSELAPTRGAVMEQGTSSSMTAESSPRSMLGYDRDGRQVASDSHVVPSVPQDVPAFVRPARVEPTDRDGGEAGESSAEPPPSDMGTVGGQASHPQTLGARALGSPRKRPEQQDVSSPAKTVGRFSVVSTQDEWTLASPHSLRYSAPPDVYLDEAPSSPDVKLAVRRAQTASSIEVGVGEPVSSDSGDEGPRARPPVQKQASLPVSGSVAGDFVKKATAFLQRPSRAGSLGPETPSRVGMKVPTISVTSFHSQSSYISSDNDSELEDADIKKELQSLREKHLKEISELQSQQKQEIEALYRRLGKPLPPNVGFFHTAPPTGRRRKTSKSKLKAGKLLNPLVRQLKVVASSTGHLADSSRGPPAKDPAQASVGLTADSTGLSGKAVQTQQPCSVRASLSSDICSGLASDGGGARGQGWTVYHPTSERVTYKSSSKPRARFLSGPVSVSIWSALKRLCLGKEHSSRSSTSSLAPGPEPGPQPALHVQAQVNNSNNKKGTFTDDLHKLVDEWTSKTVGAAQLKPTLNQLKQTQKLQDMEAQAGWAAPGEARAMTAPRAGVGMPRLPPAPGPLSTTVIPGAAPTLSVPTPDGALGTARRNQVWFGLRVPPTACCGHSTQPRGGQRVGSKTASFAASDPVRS", "method_in_brief": "as §1"}, "Rsk1(h)": {"biological_target": "T2, Rsk1(h) (Homo sapiens, UniProt Q15418)", "T2 construct": "gene RPS6KA1", "method_in_brief": "as §1"}, "PKCβII(h)": {"biological_target": "T3, PKCβII(h) (Homo sapiens, UniProt P05771)", "T3 construct": "gene PRKCB; isoform beta II", "method_in_brief": "as §1"}, "MEK1(h)": {"biological_target": "T4, MEK1(h) (Homo sapiens, UniProt Q02750)", "T4 construct": "gene MAP2K1", "method_in_brief": "as §1"}, "NEK2(h)": {"biological_target": "NEK2(h) (Homo sapiens, UniProt P51955)", "sequence (P51955 whole entry)": "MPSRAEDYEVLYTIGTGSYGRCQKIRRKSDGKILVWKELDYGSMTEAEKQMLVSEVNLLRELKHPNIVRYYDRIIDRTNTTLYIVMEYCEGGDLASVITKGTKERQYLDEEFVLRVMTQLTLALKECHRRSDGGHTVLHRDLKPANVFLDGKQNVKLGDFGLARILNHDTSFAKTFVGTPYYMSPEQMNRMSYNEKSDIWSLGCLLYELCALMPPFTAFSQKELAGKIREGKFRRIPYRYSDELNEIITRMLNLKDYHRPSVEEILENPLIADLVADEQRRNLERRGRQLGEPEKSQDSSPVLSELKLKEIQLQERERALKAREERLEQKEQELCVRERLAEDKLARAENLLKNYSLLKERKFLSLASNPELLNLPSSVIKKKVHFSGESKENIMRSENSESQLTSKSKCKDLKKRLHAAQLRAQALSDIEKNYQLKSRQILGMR", "method_in_brief": "as §1"}, "IKKε(h)": {"biological_target": "T5, IKKε(h) (Homo sapiens, UniProt Q14164)", "T5 construct": "gene IKBKE", "method_in_brief": "as §1"}, "MSK2(h)": {"biological_target": "T6, MSK2(h) (Homo sapiens, UniProt O75676)", "T6 construct": "gene RPS6KA4", "method_in_brief": "as §1"}, "MST4(h)": {"biological_target": "T7, MST4(h) (Homo sapiens, UniProt Q9P289)", "T7 construct": "gene STK26", "method_in_brief": "as §1"}, "JAK3(h)": {"biological_target": "JAK3(h) (Homo sapiens, UniProt P52333)", "method_in_brief": "as §1"}, "MST3(h)": {"biological_target": "T8, MST3(h) (Homo sapiens, UniProt Q9Y6E0)", "T8 construct": "gene STK24", "method_in_brief": "as §1"}, "EphA2(h)": {"biological_target": "EphA2(h) (Homo sapiens, UniProt P29317)", "method_in_brief": "as §1"}, "BTK(R28H)(h)": {"biological_target": "BTK(R28H)(h) (Homo sapiens, UniProt Q06187, R28H)", "method_in_brief": "as §1"}, "Plk1(h)": {"biological_target": "Plk1(h) (Homo sapiens, UniProt P53350)", "method_in_brief": "as §1"}, "Ret(h)": {"biological_target": "Ret(h) (Homo sapiens, UniProt P07949)", "sequence (P07949 whole entry)": "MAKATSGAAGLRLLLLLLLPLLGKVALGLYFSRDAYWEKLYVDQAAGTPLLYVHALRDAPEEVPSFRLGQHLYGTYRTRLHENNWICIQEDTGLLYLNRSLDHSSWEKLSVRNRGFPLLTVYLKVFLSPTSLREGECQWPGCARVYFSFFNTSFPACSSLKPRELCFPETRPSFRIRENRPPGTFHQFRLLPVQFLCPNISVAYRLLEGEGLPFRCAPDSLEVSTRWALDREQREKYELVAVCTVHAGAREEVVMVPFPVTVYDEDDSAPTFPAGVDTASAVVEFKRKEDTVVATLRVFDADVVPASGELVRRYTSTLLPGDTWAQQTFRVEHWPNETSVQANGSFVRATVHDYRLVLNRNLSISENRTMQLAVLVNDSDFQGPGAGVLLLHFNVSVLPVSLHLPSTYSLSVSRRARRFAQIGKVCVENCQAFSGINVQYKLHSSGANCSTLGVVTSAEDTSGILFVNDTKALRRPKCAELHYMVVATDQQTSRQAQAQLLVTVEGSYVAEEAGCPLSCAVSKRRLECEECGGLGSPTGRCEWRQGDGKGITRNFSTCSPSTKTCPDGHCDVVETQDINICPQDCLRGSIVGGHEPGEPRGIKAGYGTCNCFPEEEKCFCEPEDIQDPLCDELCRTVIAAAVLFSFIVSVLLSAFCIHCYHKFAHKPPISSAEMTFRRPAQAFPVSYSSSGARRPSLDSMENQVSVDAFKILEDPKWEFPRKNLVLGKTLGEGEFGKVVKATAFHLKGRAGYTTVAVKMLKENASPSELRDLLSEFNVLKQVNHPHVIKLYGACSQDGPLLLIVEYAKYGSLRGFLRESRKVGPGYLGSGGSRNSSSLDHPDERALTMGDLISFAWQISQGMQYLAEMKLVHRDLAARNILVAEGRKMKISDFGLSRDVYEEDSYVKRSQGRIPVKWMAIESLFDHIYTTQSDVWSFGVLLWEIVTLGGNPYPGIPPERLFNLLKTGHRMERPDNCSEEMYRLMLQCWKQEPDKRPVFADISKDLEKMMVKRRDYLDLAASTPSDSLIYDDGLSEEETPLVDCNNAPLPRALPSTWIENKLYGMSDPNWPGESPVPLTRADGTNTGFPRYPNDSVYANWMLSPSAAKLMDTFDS", "method_in_brief": "as §1"}, "ErbB2(h)": {"biological_target": "ErbB2(h) (Homo sapiens, UniProt P04626)", "method_in_brief": "as §1"}, "Rse(h)": {"biological_target": "T9, Rse(h) (Homo sapiens, UniProt Q06418)", "T9 construct": "gene TYRO3", "method_in_brief": "as §1"}, "IKKα(h)": {"biological_target": "T10, IKKα(h) (Homo sapiens, UniProt O15111)", "T10 construct": "gene CHUK", "method_in_brief": "as §1"}}}
{"compound": "C1=C(c2nc(-c3cnn(C4CCNCC4)c3)cn3cc(-c4ccccc4)nc23)CCOC1", "note": "[YL-939]", "values": [{"measurement": "remaining activity at 10 µM", "setting": "CDK18/cyclinY(h)", "result": 97, "unit": "%"}, {"measurement": "remaining activity at 10 µM", "setting": "Fer(h)", "result": 86, "unit": "%"}, {"measurement": "remaining activity at 10 µM", "setting": "PKCα(h)", "result": 104, "unit": "%"}, {"measurement": "remaining activity at 10 µM", "setting": "LIMK1(h)", "result": 86, "unit": "%"}, {"measurement": "remaining activity at 10 µM", "setting": "PrKX(h)", "result": 80, "unit": "%"}, {"measurement": "remaining activity at 10 µM", "setting": "TLK1(h)", "result": 71, "unit": "%"}, {"measurement": "remaining activity at 10 µM", "setting": "WNK2(h)", "result": 76, "unit": "%"}, {"measurement": "remaining activity at 10 µM", "setting": "Rsk1(h)", "result": 94, "unit": "%"}, {"measurement": "remaining activity at 10 µM", "setting": "PKCβII(h)", "result": 95, "unit": "%"}, {"measurement": "remaining activity at 10 µM", "setting": "MEK1(h)", "result": 109, "unit": "%"}, {"measurement": "remaining activity at 10 µM", "setting": "NEK2(h)", "result": 99, "unit": "%"}, {"measurement": "remaining activity at 10 µM", "setting": "IKKε(h)", "result": 113, "unit": "%"}, {"measurement": "remaining activity at 10 µM", "setting": "MSK2(h)", "result": 90, "unit": "%"}, {"measurement": "remaining activity at 10 µM", "setting": "MST4(h)", "result": 112, "unit": "%"}, {"measurement": "remaining activity at 10 µM", "setting": "JAK3(h)", "result": 91, "unit": "%"}, {"measurement": "remaining activity at 10 µM", "setting": "MST3(h)", "result": 97, "unit": "%"}, {"measurement": "remaining activity at 10 µM", "setting": "EphA2(h)", "result": 82, "unit": "%"}, {"measurement": "remaining activity at 10 µM", "setting": "BTK(R28H)(h)", "result": 107, "unit": "%"}, {"measurement": "remaining activity at 10 µM", "setting": "Plk1(h)", "result": 84, "unit": "%"}, {"measurement": "remaining activity at 10 µM", "setting": "Ret(h)", "result": 123, "unit": "%"}, {"measurement": "remaining activity at 10 µM", "setting": "ErbB2(h)", "result": 72, "unit": "%"}, {"measurement": "remaining activity at 10 µM", "setting": "Rse(h)", "result": 98, "unit": "%"}, {"measurement": "remaining activity at 10 µM", "setting": "IKKα(h)", "result": 92, "unit": "%"}]}
